Assay results: PMC6930600, “Synthesis of Aryl Propionamide Scaffold Containing a Pentafluorosulfanyl Moiety as SARMs” (Molecules, 2019)

Target: T1, androgen receptor (AR) (Homo sapiens, UniProt P10275)
T1 construct: AR expressed transiently from plasmid pSVAR0 (known as a human full-length AR expression vector)
T1 sequence (P10275 1-920): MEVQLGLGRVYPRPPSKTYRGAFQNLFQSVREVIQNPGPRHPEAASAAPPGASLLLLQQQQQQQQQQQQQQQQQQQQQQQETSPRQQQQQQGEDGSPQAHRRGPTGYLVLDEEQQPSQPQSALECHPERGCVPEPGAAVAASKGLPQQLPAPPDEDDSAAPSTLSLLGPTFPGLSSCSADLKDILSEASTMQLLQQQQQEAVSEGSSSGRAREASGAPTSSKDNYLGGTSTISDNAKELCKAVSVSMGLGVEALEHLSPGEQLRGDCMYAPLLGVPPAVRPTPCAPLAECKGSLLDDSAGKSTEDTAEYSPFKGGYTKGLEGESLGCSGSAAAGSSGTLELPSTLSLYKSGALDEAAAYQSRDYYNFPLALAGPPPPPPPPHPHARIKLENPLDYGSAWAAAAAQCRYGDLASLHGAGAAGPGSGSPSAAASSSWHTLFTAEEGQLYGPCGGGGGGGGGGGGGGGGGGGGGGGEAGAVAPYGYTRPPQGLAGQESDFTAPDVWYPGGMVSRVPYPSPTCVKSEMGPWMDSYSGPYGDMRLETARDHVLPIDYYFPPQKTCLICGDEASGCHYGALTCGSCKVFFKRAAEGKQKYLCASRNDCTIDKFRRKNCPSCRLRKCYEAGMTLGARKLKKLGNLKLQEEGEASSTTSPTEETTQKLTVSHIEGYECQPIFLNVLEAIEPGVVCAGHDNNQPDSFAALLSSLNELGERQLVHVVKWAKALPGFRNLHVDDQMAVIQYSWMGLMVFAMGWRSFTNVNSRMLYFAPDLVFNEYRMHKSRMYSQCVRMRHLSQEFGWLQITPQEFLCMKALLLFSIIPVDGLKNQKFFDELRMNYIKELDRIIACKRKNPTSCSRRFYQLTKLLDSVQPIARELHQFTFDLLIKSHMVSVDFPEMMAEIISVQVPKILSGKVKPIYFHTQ
Assay: MMTV-luciferase reporter gene agonist assay, transfected CV-1 cells
Type: cell-based
Details: agonist mode, […] h, […] °C
Excerpt: MMTV-luciferase reporter gene agonist assay, transfected CV-1 cells on androgen receptor (AR)

Structure (SMILES)	Agonist activity in CV-1 / EC50 (unreliable) [nM]	Agonist activity in CV-1 / EC50 (unreliable (above top tested concentration […])) [nM]
C[C@](O)(COc1ccc(Cl)cc1)C(=O)Nc1cccc(S(F)(F)(F)(F)F)c1 [12c, (S)-3-(4-chlorophenoxy)-2-hydroxy-2-methyl-N-(3-(pentafluoro-l6-sulfanyl)phenyl)propanamide]	1282 ± 79.2	
C[C@](O)(COc1ccc(C#N)cc1)C(=O)Nc1cccc(S(F)(F)(F)(F)F)c1 [12a, (S)-3-(4-cyanophenoxy)-2-hydroxy-2-methyl-N-(3-(pentafluoro-l6-sulfanyl)phenyl)propanamide]	1508 ± 429.9	
COc1ccc(OC[C@](C)(O)C(=O)Nc2ccc(S(F)(F)(F)(F)F)cc2)c(F)c1 [16g, (S)-3-(2-fluoro-4-methoxyphenoxy)-2-hydroxy-2-methyl-N-(4-(pentafluorosulfanyl)phenyl)propanamide]	2144.0 ± 694.4	
CCC(=O)c1ccc(OC[C@](C)(O)C(=O)Nc2cccc(S(F)(F)(F)(F)F)c2)cc1 [12f, (S)-2-hydroxy-2-methyl-N-(3-(pentafluoro-l6-sulfanyl)phenyl)-3-(4-propionylphenoxy)propanamide]	12733.5 ± 2144.7	
C[C@](O)(COc1ccc(F)cc1)C(=O)Nc1cccc(S(F)(F)(F)(F)F)c1 [12b, (S)-3-(4-fluorophenoxy)-2-hydroxy-2-methyl-N-(3-(pentafluoro-l6-sulfanyl)phenyl)propanamide]		51213.5 ± 5806.1
